Two compounds from US5322847A, “Azabenzimidazoles in the treatment of asthma, arthritis and related diseases” (Pfizer Inc., priority 1992, dated 1994) can be followed below.

Assay [1] deals with PAF lethality in CDl male mice. The experiment in a line: PAF lethality assay. The class given is in vivo. As to conditions: Mus musculus; positive control; oral dosing 45 minutes before i.v. PAF injection; read-out: approximate ED 50. On the procedure: To evaluate the compounds of the formula (I) in vivo, they are tested by the so-called PAF lethality assay procedure:
Mice: CDl males, all approximately the same weight (approximately 26 grams), 12 per group.
Vehicle for oral drug dosing: EES (5% ethanol, 5% emulphor, 90% saline). Stored at room temperature.
Drugs: For routine screening at 50 mg/kg, 20 mg drug is dissolved in 4 ml EES, using sonication in a sonicator bath or grinding in a Ten Broeck grinder to dissolve drug if necessary. If solubility is still a problem, the drug is used as a suspension.
Vehicle for i.v. Injection: Saline with 2.5 mg/ml Bovine Serum Albumin (BSA, Sigma #A4378) and 0.05 mg/ml Propranolol (Sigma #PO884). Prepared fresh daily and kept at room temperature.
Platelet Activating Factor (PAF): A […] stock solution is prepared by dissolving 1 mg PAF (Calbiochem #429460) in 0.18 ml ethanol. This is stored at -20° C. and is diluted in vehicle (see above) the day of use. The concentration of PAF used is calibrated so that when injected at 0.1 ml/10 grams body weight, it will kill approximately 80% of untreated controls. This is usually about […] (a 1 to 2034 dilution from stock). […]
Method: 45 minutes before PAF injection, mice are treated orally with drug using 0.1 ml/10 grams body weight. […] Results are expressed as percent mortality as compared to controls. […]

For assay [2], the target named is T1, PAF receptor sites on rabbit platelet homogenate (Oryctolagus cuniculus, UniProt G1TEI7).
T1 construct: specific PAF receptor sites on rabbit platelet homogenate; tissue Rockland, Inc., Gilbertsville, Pa; (rabbit blood mixture); host or cells: platelets from blood of normal New Zealand white rabbits, freeze-thawed homogenate
T1 sequence (G1TEI7 1-342): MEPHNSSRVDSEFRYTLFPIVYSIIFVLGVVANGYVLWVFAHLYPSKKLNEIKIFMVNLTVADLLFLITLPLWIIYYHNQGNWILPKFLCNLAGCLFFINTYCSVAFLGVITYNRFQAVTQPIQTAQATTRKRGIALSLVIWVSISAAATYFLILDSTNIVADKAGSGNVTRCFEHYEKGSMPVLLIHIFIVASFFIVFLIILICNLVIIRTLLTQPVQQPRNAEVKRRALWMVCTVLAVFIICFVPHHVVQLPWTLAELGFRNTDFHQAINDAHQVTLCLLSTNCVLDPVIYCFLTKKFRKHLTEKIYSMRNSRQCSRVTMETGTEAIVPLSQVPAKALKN
Description: platelet activating factor (PAF) receptor assay. The assay is classed as binding. Particulars: radioligand 3H-PAF; constant used in Ki=(IC50)/[1+(L/Kd)]; 25° C., sodium-free buffer +0.25% BSA; read-out: Kd (dissociation constant). The text has this:
The platelet activating factor (PAF) receptor assay tests the ability of a compound to compete with radiolabeled PAF for specific PAF receptor sites on rabbit platelet homogenate.
Five hundred milliliters of a rabbit blood mixture is purchased from Rockland, Inc., Gilbertsville, Pa. The blood mixture is 4 parts blood: 1 part 4% sodium citrate (v/v), and is obtained by heart puncture from normal, approximately 8-month old New Zealand white rabbits. The blood mixture is delivered overnight on wet ice (approx. 8° C.).
The blood mixture is centrifuged at 514 g for 10 minutes. The supernatant platelet-rich plasma is gently laid over Ficoll-Paque (Pharmacia) at a ratio of 9 parts plasma:2 parts Ficoll (v/v) The plasma/Ficoll mixture is centrifuged at 856 g for 20 minutes. […] Protein concentration of the suspension is determined by a Bio-Rad assay. […]
The reaction tubes are incubated at 25° C. for 45 minutes. […] The vial is capped, vortexed and counted for 3H.
Percent specific binding is calculated using the formula
Percent specific binding is graphed as a function of compound concentration. […] Alternatively, the IC50 is calculated using the logistic dose-response (Hill plot) option of the VAX Biostat utility. The inhibitory constant (Ki) is calculated by using the formula […]

As usually defined, the Kd is the constant that tells how readily two partners part at equilibrium.

For `O=C1CCN(c2ccccc2)N1` [Phenidone], the ED50 in assay [1] was about 25 mg/kg.

For `CCCCCCCCCCCCCCCCOCC(COP(=O)([O-])OCC[N+](C)(C)C)OC(C)=O` (centres unmarked) [Example 3H-PAF], the Kd in assay [2] turned out to be 0.83 nM.
